Our source for the inhibition values is ChEMBL document CHEMBL4043078, “Biological evaluation of pyridone alkaloids on the endocannabinoid system” (Bioorg Med Chem, 2017).

The species named for one assay is Sus scrofa. The assay is described as follows: Inhibition of MAGL in pig brain homogenates using [3H]2-OG as substrate at 10 uM after 15 mins in presence of URB597 by liquid scintillation counting method. It is filed as tissue-based.
Assay [1] has as its target T1, Lysophosphatidylserine lipase ABHD12 (Mus musculus) (UniProt Q99LR1).
T1 sequence (whole entry): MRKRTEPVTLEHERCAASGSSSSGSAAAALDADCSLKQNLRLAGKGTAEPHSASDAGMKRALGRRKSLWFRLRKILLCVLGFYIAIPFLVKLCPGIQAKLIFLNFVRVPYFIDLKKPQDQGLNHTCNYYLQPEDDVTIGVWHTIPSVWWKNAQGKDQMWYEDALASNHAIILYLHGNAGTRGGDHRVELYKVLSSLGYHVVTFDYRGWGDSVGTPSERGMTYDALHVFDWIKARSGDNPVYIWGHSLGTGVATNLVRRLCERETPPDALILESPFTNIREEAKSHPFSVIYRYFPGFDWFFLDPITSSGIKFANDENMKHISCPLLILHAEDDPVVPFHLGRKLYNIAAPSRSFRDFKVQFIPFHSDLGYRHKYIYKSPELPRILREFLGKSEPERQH
The assay is described as follows: Inhibition of ABHD12 in mouse BV2 cells preincubated for 30 mins and subsequent addition of [3H]-2-OG substrate measured after 15 mins by liquid scintillation counting method. It is filed as cell-based.

The target in assay [2] is T2, Monoacylglycerol lipase ABHD6 (Mus musculus) (UniProt Q8R2Y0).
T2 sequence (whole entry): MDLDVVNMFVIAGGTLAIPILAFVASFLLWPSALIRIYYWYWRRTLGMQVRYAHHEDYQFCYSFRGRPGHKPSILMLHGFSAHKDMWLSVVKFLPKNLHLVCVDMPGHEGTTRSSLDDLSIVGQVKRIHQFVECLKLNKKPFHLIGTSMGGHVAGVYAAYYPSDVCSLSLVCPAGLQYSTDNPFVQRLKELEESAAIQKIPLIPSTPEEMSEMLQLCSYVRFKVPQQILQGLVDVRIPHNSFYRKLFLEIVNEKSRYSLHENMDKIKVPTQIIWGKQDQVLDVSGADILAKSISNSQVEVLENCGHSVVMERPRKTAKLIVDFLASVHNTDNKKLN
The assay is described as follows: Inhibition of ABHD6 in mouse BV2 cells preincubated for 30 mins and subsequent addition of [3H]-2-OG substrate measured after 15 mins by liquid scintillation counting method. The class given is cell-based.

In the next assay the target is Cannabinoid receptor 1 (Homo sapiens, UniProt P21554). The assay is described as follows: Displacement of [3H]CP55,940 from human CB1 receptor expressed in CHOK1 cell membranes at 1 uM after 2 hrs by liquid scintillation counting method relative to control. Background: Loss of bound radioactivity is the signal in a displacement assay; it reports binding, not function.
Chain of Cannabinoid receptor 1 (P21554 whole entry): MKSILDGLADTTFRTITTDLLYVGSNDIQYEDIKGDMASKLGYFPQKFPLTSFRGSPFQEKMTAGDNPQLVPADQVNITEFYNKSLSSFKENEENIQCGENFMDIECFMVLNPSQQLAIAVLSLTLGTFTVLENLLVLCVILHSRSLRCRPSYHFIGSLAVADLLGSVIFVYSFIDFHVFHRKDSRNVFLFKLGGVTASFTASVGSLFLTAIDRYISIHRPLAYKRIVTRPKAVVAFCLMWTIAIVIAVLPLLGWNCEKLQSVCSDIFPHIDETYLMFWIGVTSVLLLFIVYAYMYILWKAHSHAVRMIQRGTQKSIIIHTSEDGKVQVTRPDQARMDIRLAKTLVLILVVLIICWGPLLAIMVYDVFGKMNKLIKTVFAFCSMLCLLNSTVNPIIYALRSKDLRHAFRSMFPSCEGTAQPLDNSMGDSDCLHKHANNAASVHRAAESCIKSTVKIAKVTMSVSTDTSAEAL

Assay [3] addresses T3, Fatty-acid amide hydrolase 1 (Homo sapiens) (UniProt O00519).
T3 sequence (whole entry): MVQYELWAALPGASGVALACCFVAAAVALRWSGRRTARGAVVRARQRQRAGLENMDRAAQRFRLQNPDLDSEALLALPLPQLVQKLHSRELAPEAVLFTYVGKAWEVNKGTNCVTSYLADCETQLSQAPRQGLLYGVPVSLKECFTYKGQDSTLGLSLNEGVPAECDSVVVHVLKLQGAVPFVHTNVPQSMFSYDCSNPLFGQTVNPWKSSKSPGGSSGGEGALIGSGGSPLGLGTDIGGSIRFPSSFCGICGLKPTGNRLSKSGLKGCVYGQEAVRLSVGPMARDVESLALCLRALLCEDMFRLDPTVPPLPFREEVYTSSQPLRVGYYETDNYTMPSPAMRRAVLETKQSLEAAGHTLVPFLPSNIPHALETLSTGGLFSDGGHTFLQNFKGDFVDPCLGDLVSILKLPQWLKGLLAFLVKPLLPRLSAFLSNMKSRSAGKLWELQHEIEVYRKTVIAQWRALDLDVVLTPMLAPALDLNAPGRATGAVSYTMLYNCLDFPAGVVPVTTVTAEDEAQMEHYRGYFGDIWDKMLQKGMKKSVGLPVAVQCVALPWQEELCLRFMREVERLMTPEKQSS
Description: Inhibition of FAAH in human U937 cells assessed as decrease in [ethanolamine-1-3H]AEA uptake at 10 uM preincubated for 2 mins followed by AEA addition after 5 mins by liquid scintillation counting method. It is filed as cell-based.

The target of a further assay is Cannabinoid receptor 2 (Homo sapiens, UniProt P34972). Description: Displacement of [3H]CP55,940 from human CB2 receptor expressed in CHOK1 cell membranes at 1 uM after 2 hrs by liquid scintillation counting method relative to control.
Chain of Cannabinoid receptor 2 (P34972 whole entry): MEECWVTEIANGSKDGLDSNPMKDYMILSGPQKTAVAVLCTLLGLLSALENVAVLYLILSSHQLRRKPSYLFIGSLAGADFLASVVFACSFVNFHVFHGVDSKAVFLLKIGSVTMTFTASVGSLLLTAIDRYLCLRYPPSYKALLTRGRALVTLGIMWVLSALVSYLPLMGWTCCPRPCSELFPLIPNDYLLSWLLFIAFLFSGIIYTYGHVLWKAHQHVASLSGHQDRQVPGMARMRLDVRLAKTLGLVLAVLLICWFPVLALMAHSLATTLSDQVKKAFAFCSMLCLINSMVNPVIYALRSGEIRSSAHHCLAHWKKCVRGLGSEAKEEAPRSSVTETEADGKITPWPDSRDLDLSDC

Calls of active or inactive are those of the source. The calls are words filed in the database; no cut-off is given here. Some results are limits rather than exact numbers.

On to `O=C(Oc1ccc([N+](=O)[O-])cc1)N1CCC(C(O)(c2ccc3c(c2)OCO3)c2ccc3c(c2)OCO3)CC1`, for which the inhibition entry (in the assay listed under Sus scrofa; in assay [1]; in assay [2]) was “inactive” each time.
With `C=CCCCOC(=O)c1c(O)c(-c2ccc(O)cc2)c[nH]c1=O`, the inhibition entry (in the assay listed under Sus scrofa; in assay [1]; in assay [2]; in assay [3]) was “inactive” each time. For the same compound, the inhibition at Cannabinoid receptor 1 and on Cannabinoid receptor 2 was less than 20% each time.
For `CC[C@@H](C)/C=C(C)/C=C/C(=O)c1c(O)c(-c2ccc(O)cc2)c[nH]c1=O`, the inhibition entry (in the assay listed under Sus scrofa; in assay [1]; in assay [2]) was “inactive” throughout. Moreover, the inhibition at Cannabinoid receptor 1 was found to be 40%. Further, the inhibition result in assay [3] is “Active”.
Take `NC(=O)c1cccc(-c2cccc(OC(=O)NC3CCCCC3)c2)c1`: the inhibition entry (in the assay filed under Sus scrofa; in assay [1]; in assay [2]) was “inactive” each time.
For the compound `CCC(/C=C(C)/C=C/C(=O)c1c(O)c(-c2ccc(O)cc2)c[nH]c1=O)CO` (stereo not given), the inhibition result (in the assay filed under Sus scrofa; in assay [1]; in assay [2]; in assay [3]) was “inactive” in each case. Moreover, the inhibition on Cannabinoid receptor 1 and on Cannabinoid receptor 2 was less than 20% throughout.
In the case of `CCC(C)CC(C)/C=C(C)/C=C/C(=O)c1c(O)c(-c2ccc(O)cc2)c[nH]c1=O` (stereo not given), the inhibition entry (in the assay filed under Sus scrofa; in assay [1]; in assay [2]; in assay [3]) was “inactive” each time. Moreover, the inhibition on Cannabinoid receptor 1 amounted to 40%.
For the compound `CCC(C)/C=C(C)/C=C/C=C/C(=O)c1c(O)c(-c2ccc(O)cc2)c[nH]c1=O` (stereo not given), the inhibition entry (in the assay listed under Sus scrofa; in assay [1]; in assay [2]; in assay [3]) was “inactive” in each case. Besides, the inhibition on Cannabinoid receptor 1 and on Cannabinoid receptor 2 was less than 20% in each case.
Take `CCC(/C=C/C=C/C=C/C(=O)c1c(O)c(-c2ccc(O)cc2)c[nH]c1=O)CO` (stereo not given): the inhibition result (in the assay filed under Sus scrofa; in assay [1]; in assay [2]; in assay [3]) was “inactive” each time. Moreover, the inhibition at Cannabinoid receptor 1 and at Cannabinoid receptor 2 was less than 20% in each case.
Turning to `CCCCCCCCCCC[C@@H](C[C@@H]1OC(=O)[C@H]1CCCCCC)OC(=O)[C@H](CC(C)C)NC=O`, the inhibition entry in assay [1] and in assay [2] was “Active” each time.
For `CN(Cc1cccc(-c2ccncc2)c1)C(=O)Oc1ccc(-c2ccc(C(N)=O)cc2)cc1`, the inhibition result in assay [1] and in assay [2] was “Active” in each case.
For the compound `CCC(C)/C=C(C)/C=C/C=C/C(=O)c1c(OC)c(-c2ccc(O)cc2)c[nH]c1=O` (stereo not given), the inhibition result (in the assay filed under Sus scrofa; in assay [1]; in assay [2]) was “inactive” throughout. Moreover, the inhibition on Cannabinoid receptor 1 and on Cannabinoid receptor 2 was less than 20% throughout. In addition, the inhibition entry in assay [3] was “Active”.

As a reminder, the inhibition is how much of the control response was suppressed.
